Source: US8680122B2, “Substituted pyrrolones as allosteric modulators of glucokinase” (Janssen Pharmacetica N.V., priority 2005, dated 2014)
Where “and” joins values, the source holds several entries; their conditions need not be identical. Identical values can stand only once.

Legend:
Liver GK = molecular target: T1, Liver GK (Homo sapiens, UniProt P35557); assay: Glucokinase enzyme assay, liver GK; assay type: biochemical; details: for EC50: concentration that produces 50% activation above the vehicle control; for EC100%: concentration that produces 100% activation above the vehicle control; for activation at 50 µM: percentage increase in GK activity above vehicle control, compound 50 μM, 12 mM glucose
T1 construct: (His)6; made in house; host or cells: Escherichia coli
T1 sequence (P35557 1-466 isoform P35557-2): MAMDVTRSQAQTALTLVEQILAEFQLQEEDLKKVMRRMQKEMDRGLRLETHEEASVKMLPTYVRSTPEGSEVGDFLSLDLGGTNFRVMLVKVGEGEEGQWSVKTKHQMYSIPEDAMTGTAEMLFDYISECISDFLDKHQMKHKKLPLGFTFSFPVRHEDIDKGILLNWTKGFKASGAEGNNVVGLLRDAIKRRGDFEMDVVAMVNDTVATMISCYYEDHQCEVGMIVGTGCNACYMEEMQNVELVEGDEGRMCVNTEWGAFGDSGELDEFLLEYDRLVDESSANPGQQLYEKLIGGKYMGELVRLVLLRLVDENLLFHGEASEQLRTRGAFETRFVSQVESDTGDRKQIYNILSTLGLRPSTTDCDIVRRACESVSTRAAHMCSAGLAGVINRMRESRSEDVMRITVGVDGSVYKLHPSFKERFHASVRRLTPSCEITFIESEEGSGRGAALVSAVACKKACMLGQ
Source text: (§1) An enzymatic Glucokinase (GK) assay using purified recombinant human liver/pancreas enzyme was used to evaluate the effects of potential small molecule modulators.
(§2) In this assay, GK catalyzes glucose phosphorylation in the presence of ATP. The product of this reaction, glucose-6-phosphate, was then oxidized by an excess of glucose-6-phosphate dehydrogenase to produce gluconate-6-phosphate with concomitant reduction of nicotinamide adenine dinucleotide (NAD). […] Human GK (Liver/Pancreas) was expressed in Escherichia coli as a (His) 6-tagged fusion protein and was purified by metal chelate affinity chromatography. The assay was performed in a final incubation volume of 80 μl in a 96-well clear low UV absorption plates. The incubation mixture consisted of 25 mM HEPES, 2 mM MgSO4, 1 mM dithiothreotol (DTT), 1 mg/mL bovine serum albumin (BSA), 1 mM ATP, 1 mM NAD, and 12 mM glucose, 10 units per mL glucose-6-phosphate dehydrogenase, and +/−300 ng per mL GK. For determination of the affinity (Km) and Vmax, different concentrations of glucose ranging from 0.5 mM to 40 mM were used in the assay; see Grimsby, J., Sarabu, R.; Grippo, J. F.; et. al. Science 2003, 301, 370-373. Production of reduced NAD (Nicotinamide Adenine Dinucleotide) was measured as changes in absorption at 340 nm in 96-well plate reader (Envision model #2101 Multilabel Plate reader). % Activation @ 50 μM was calculated as the percentage increase in GK activity above the vehicle control with the effective concentration of the compound being 50 μM. EC50% (μM) was calculated as the effective concentration of the compound that produces 50% activation above the vehicle control, and EC100% (μM) was calculated as the effective concentration of the compound that produces 100% activation above the vehicle control.

Pancreas GK = molecular target: T2, Pancreas GK (Homo sapiens, UniProt P35557); assay: Glucokinase enzyme assay, pancreas GK; assay type: biochemical; details: for EC50: concentration that produces 50% activation above the vehicle control; for EC100%: concentration that produces 100% activation above the vehicle control; for activation at 50 µM: percentage increase in GK activity above vehicle control, compound 50 μM, 12 mM glucose
T2 construct: (His)6; made in house; host or cells: Escherichia coli
T2 sequence (P35557 1-465): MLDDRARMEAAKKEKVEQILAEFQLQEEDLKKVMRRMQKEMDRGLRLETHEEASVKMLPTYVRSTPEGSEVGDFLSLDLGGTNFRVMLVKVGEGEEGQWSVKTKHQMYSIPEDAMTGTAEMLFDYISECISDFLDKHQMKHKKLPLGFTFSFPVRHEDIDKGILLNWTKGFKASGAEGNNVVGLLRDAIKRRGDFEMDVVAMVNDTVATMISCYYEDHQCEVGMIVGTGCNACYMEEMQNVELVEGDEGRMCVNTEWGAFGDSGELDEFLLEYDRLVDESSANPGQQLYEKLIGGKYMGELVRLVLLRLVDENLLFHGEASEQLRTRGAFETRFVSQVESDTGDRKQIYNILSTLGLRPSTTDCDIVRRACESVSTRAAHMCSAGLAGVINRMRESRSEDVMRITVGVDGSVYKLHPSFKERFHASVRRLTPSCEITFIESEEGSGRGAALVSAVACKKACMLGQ
Source text: as §1, §2

Structure (SMILES)	EC50 (Liver GK)	EC100% (Liver GK)	EC50 (Pancreas GK)	EC100% (Pancreas GK) [µM]	activation at 50 µM (Liver GK) [%]	activation at 50 µM (Pancreas GK) [%]
COc1ccc(CN2C(=O)C(C)=C(C)C2SCC(=O)Nc2ccc(C(N)=O)cn2)cc1 (stereo not shown) [Compound 18]	1.13 µM	3.61 µM	3.51 µM	12.02	217	167
CCc1ccc(CN2C(=O)C(C)=C(C)C2SCC(=O)Nc2ccccn2)cc1 (stereo not shown) [Compound 26, 2-[1-(4-Ethyl-benzyl)-3,4-dimethyl-5-oxo-2,5-dihydro-1H-pyrrol-2-ylsulfanyl]-N-pyridin-2-yl-acetamide]	15.3 µM	35.9 µM	24 µM	–	154	102
COC(=O)c1ccc(NC(=O)CSC2C(C)=C(C)C(=O)N2Cc2ccc(OC)cc2)nc1 (stereo not shown) [Compound 1, 6-{2-[1-(4-Methoxy-benzyl)-3,4-dimethyl-5-oxo-2,5-dihydro-1H-pyrrol-2-ylsulfanyl]-acetylamino}-nicotinic acid methyl ester]	0.39 µM and 0.26 µM	1.46 µM	0.64 µM	2.23	–	287
CC1=C(C)C(SCC(=O)Nc2ccccn2)N(Cc2ccc(C(C)C)cc2)C1=O (stereo not shown) [Compound 25, 2-[1-(4-Isopropyl-benzyl)-3,4-dimethyl-5-oxo-2,5-dihydro-1H-pyrrol-2-ylsulfanyl]-N-pyridin-2-yl-acetamide]	6.3 µM	28.5 µM	14.7 µM	44.9	180	130
COc1ccc(CN2C(=O)C(C)=C(C)C2SCC(=O)Nc2cc(C)ccn2)cc1 (stereo not shown) [Compound 21, 2-[1-(4-Methoxy-benzyl)-3,4-dimethyl-5-oxo-2,5-dihydro-1H-pyrrol-2-ylsulfanyl]-N-(4-methyl-pyridin-2-yl)-acetamide]	4.73 µM	12.68 µM	7.12 µM	19.43	–	–
COc1ccc(CN2C(=O)C=C(C)C2SCC(=O)Nc2ccccn2)cc1 (stereo not shown) [Compound 19, 2-[1-(4-Methoxy-benzyl)-3-methyl-5-oxo-2,5-dihydro-1H-pyrrol-2-ylsulfanyl]-N-pyridin-2-yl-acetamide]	13.8 µM	30.5 µM	15.2 µM	47.3	–	–
CC1=C(C)C(SCC(=O)Nc2ccccn2)N(Cc2ccc3c(c2)CCO3)C1=O (stereo not shown) [Compound 20, 2-[1-(2,3-Dihydro-benzofuran-5-ylmethyl)-3,4-dimethyl-5-oxo-2,5-dihydro-1H-pyrrol-2-ylsulfanyl]-N-pyridin-2-yl-acetamide]	2.78 µM	6.61 µM	3.23 µM	8.87	–	–
CC1=C(C)C(SCC(=O)Nc2ccccn2)N(Cc2cccs2)C1=O (stereo not shown) [Compound 24, 2-(3,4-Dimethyl-5-oxo-1-thiophen-2-ylmethyl-2,5-dihydro-1H-pyrrol-2-ylsulfanyl)-N-pyridin-2-yl-acetamide]	8.4 µM	26.7 µM	13.6 µM	37.3	172	124
CCc1ccnc(NC(=O)CSC2C(C)=C(C)C(=O)N2Cc2ccc(OC)cc2)c1 (stereo not shown) [Compound 22, N-(4-Ethyl-pyridin-2-yl)-2-[1-(4-methoxy-benzyl)-3,4-dimethyl-5-oxo-2,5-dihydro-1H-pyrrol-2-ylsulfanyl]-acetamide]	17.3 µM	–	24.1 µM	–	82	70
COC(=O)c1ccc(NC(=O)CSC2C(c3ccccc3)=C(c3ccccc3)C(=O)N2Cc2ccc(OC)cc2)nc1 (stereo not shown) [Compound 4]	19.8 µM and 24.5 µM	37.3 µM and 30.4 µM	–	–	–	–

Second part, the compound after the results:

EC50 (Liver GK)	EC100% (Liver GK)	EC50 (Pancreas GK)	EC100% (Pancreas GK) [µM]	activation at 50 µM (Liver GK) [%]	activation at 50 µM (Pancreas GK) [%]	Structure (SMILES)
34.5 µM	>50 µM	> 50 µM	>50	–	–	COc1ccc(CN2C(=O)C(C)=C(C)C2OCC(=O)Nc2ccccn2)cc1 (stereo not shown) [Compound 30, 2-[1-(4-Methoxy-benzyl)-3,4-dimethyl-5-oxo-2,5-dihydro-1H-pyrrol-2-yloxy]-N-pyridin-2-yl-acetamide]
–	–	1.09 µM	8.9	–	–	COC(=O)c1ccc(NC(=O)CSC2C(C)=C(C)C(=O)N2Cc2cccs2)nc1 (stereo not shown) [Compound 38, 6-[2-(3,4-Dimethyl-5-oxo-1-thiophen-2-ylmethyl-2,5-dihydro-1H-pyrrol-2-ylsulfanyl)-acetylamino]-nicotinic acid methyl ester]
14.2 µM	>50 µM	18.5 µM	>50	90	–	COc1ccc(CN2C(=O)C(C)=C(C)C2OCC(=O)Nc2ccc(C)cn2)cc1 (stereo not shown) [Compound 28, 2-[1-(4-Methoxy-benzyl)-3,4-dimethyl-5-oxo-2,5-dihydro-1H-pyrrol-2-yloxy]-N-(5-methyl-pyridin-2-yl)-acetamide]
–	–	2.5 µM and 1.6 µM	–	–	–	COc1ccc(CN2C(=O)C(C)=C(C)C2SCC(=O)Nc2ccc(C(=O)O)cn2)cc1 (stereo not shown) [Compound 33]
–	–	1.14 µM	5.3	–	–	COC(=O)c1ccc(NC(=O)CSC2C(C)=C(C)C(=O)N2Cc2ccc(OC)c(OC)c2)nc1 (stereo not shown) [Compound 39]
–	–	1.09 µM	1.09	–	209	COC(=O)c1ccc(NC(=O)CSC2C(C)=C(C)C(=O)N2Cc2ccc3c(c2)CCO3)nc1 (stereo not shown) [Compound 37]
–	–	–	–	21	3	COc1ccc(CN2C(=O)C(C)=C(C)C2OCC(=O)Nc2nccs2)cc1 (stereo not shown) [Compound 31, 2-[1-(4-Methoxy-benzyl)-3,4-dimethyl-5-oxo-2,5-dihydro-1H-pyrrol-2-yloxy]-N-thiazol-2-yl-acetamide]
–	–	2.5 µM	18	–	–	COC(=O)c1ccc(NC(=O)CSC2C(C)=C(C)C(=O)N2Cc2ccc(OC(F)F)cc2)nc1 (stereo not shown) [Compound 36, 6-{2-[1-(4-Difluoromethoxy-benzyl)-3,4-dimethyl-5-oxo-2,5-dihydro-1H-pyrrol-2-ylsulfanyl]-acetylamino}-nicotinic acid methyl ester]
7.7 µM	26.1 µM	11.8 µM	41.4	–	–	COc1cc(CN2C(=O)C(C)=C(C)C2SCC(=O)Nc2ccccn2)cc(OC)c1 (stereo not shown) [Compound 29, 2-[1-(3,5-Dimethoxy-benzyl)-3,4-dimethyl-5-oxo-2,5-dihydro-1H-pyrrol-2-ylsulfanyl]-N-pyridin-2-yl-acetamide]
–	–	2.5 µM	12	–	163	CC1=C(C)C(SCC(=O)Nc2ccccn2)N(Cc2ccc(N(C)C)cc2)C1=O (stereo not shown) [Compound 34, 2-[1-(4-Dimethylamino-benzyl)-3,4-dimethyl-5-oxo-2,5-dihydro-1H-pyrrol-2-ylsulfanyl]-N-pyridin-2-yl-acetamide]
–	–	2.3 µM	19	–	–	COC(=O)c1ccc(NC(=O)CSC2C(C)=C(C)C(=O)N2Cc2cc(OC)cc(OC)c2)nc1 (stereo not shown) [Compound 40]
–	–	0.98 µM	5.3	–	156	COC(=O)c1ccc(NC(=O)CSC2C(C)=C(C)C(=O)N2Cc2ccc(F)cc2)nc1 (stereo not shown) [Compound 35, 6-{2-[1-(4-Fluoro-benzyl)-3,4-dimethyl-5-oxo-2,5-dihydro-1H-pyrrol-2-ylsulfanyl]-acetylamino}-nicotinic acid methyl ester]
